{
  "source": "paper PMC12655252",
  "about": "“Synthesis of 1H-Pyrrolo[3,2-g]isoquinoline Derivatives as Ligands Targeting Haspin Kinase” (Molecules, 2025)",
  "test_system": "endogenous Haspin kinase (phosphorylation of Histone H3 on Thr3) in U2OS cells",
  "test": "H3T3ph immunofluorescence assay in U2OS cells (cellular endogenous Haspin activity)",
  "assay_type": "cell-based",
  "details": "1 μM, 16 h, positive control",
  "protocol": "In order to assess the ability of our most interesting compounds to inhibit cellular endogenous Haspin kinase, we evaluated their effects on the phosphorylation of Histone H3 on Thr3, a bona fide Haspin substrate (Figure 4). We treated osteosarcoma U2OS cells with 2.5 μM of selected compounds for 16 h before quantifying H3T3 phosphorylation by immunofluorescence on early mitotic cells (Figure 4A,B). […] This discrepency could be explained by the inability of this compound to cross the plasma membrane or by reduced stability in a cellular environment.\nEthical approval for this study was obtained (9 July 2025) from DGRI-LabOGM (APPROVAL NUMBER: L1-2373). U2OS cells (purchased from ATCC, Manassas, VA, USA, reference HTB-96) were grown in DMEM medium (Dulbecco’s Modified Eagle Medium, High glucose; GlutaMAX, Life Technologies, Carlsbad, CA, USA) supplemented with 10% fetal bovine serum (Gibco, Grand Island, NY, USA) in a 5% CO2 humidified atmosphere. Cells grown on coverslips were treated for 16 h with each compound or 0.025% DMSO, then fixed with 4% paraformaldehyde in PBS, permeabilized by 0.15% Triton-X100 for 2 min, and blocked for 12 min in 4% BSA in PBS. Immunofluorescence assay was performed using standard protocols with a rabbit anti-phospho-Thr3 Histone H3 and a mouse anti-a-Tubulin (B-5-1-2) obtained from Merck Millipore, Burlington, MA, USA (1/2000 dilution). Coverslips were mounted with Vectashield containing DAPI (Vector Laboratories, Newark, CA, USA). Images were acquired with a Coolsnap HQ2 CCD camera (Photometrics, Tucson, AZ, USA) on a Zeiss Axio microscope (Carl Zeiss, Oberkochen, Germany) using a 63x NA 1.46 objective. Image acquisition and processing were performed using Zen Blue (Carl Zeiss). The H3T3ph signal on chromosomes was normalized against the DAPI signal and analyzed using ImageJ software (NIH, Version 1.54p). Graphs were produced and statistical analysis was performed using GraphPad Prism 10. p-values were determined by t-test; n.s., not significant; **** p ≤ 0.0001.\nFigure 4 Evaluation of selected compounds on cellular endogenous Haspin activity. (A) U2OS cells were treated with 2.5 μM of each compound or 1 μM of CHR6494 (CHR) or DMSO for 16 h. Immunofluorescence assay was performed with anti-pH3T3 antibody (green) and anti-a-Tubulin (red); DNA was labelled with DAPI (blue). Representative images of early mitotic cells for each condition are presented. Scale bar: 5 μm. (B) Scatter plot representing H3T3ph/DAPI signal ratio indicative of Haspin activity; n > 17 mitotic cells per condition. n.s., not significant; **** p ≤ 0.0001.",
  "data": [
    {"smiles": "CCCNc1ccc2ncc(-c3ccc4[nH]ncc4c3)n2n1", "note": "[CHR-6494, reference compound]", "values": [
      {"measurement": "Effect on endogenous Haspin activity (H3T3 phosphorylation)", "result": "abolished Haspin activity"}
    ]}
  ]
}
